Type in all cases: cell-based, human
The test system of one experiment is HUES8-derived population. Nature of the experiment: In vitro differentiation into pancreatic lineages with bFGF and nicotinamide. As to the method:
For growth factor-induced differentiation, the ILV-treated populations were cultured in DMEM/F12 supplemented with 1×N2 (Invitrogen), 2 mg/ml albumin fraction V (Invitrogen), and 10 ng/ml bFGF (Invitrogen) for the first 4 days. 10 mM nicotinamide (Sigma) was then added and maintained for additional 8 days, changing the media every 3 days.
Cells were fixed with 10% formalin solution (Sigma) for 20 min at room temperature. Immunostaining was carried out with standard protocols. The following primary antibodies were used: goat anti-Pdx1 (1:500; R&D system); rabbit anti-FOXA2 (1:500; Upstate); rabbit anti-HNF6 (1:200; Santa Cruz Biotech); guinea pig anti-insulin (1:1000; Dako); rabbit anti-c-peptide (1:500; Linco); rabbit anti-amylase (1:200, Sigma); goat anti-HNF1β (1:100, Santa Cruz Biotech); and biotinylated DBA (1:400; Vector Lab). Alexa-488-, Alexa-555, and Alexa-647-conjugated donkey antibodies against mouse, rabbit, guinea pig and goat, and Pacific Blue conjugate-streptavidin (Invitrogen) were used at 1:300 dilution.
In mouse embryonic development, Pdx1^+ pancreatic progenitors contribute to exocrine, endocrine and duct cells (Gu et al., 2003). The developmental potential of Pdx1^+ cells produced by ILV treatment was tested in two assays. First, following published protocols for in vitro differentiation (Jiang et al., 2007), cells were cultured with bFGF and nicotinamide for an additional 12 days. Using this in vitro differentiation assay, four different induced cell types were tested, including HUES8-derived population before ILV treatment (no treatment), the HUES8-derived population after 4 day treatment with DMSO, 300 nM ILV or 300 nM ILV+50 ng/ml FGF10, respectively. After 12 days culture with bFGF and nicotinamide, these four populations of cells were stained with the antibodies against insulin, c-peptide, amylase or DBA (a duct marker).

Experiment [1] has as its system ERK1/2 phosphorylation at Thr-202/Tyr-204. The experiment in a line: Western blot of ERK1/2 phosphorylation. To be noted: 300 nM ILV, 1 hour, compared to DMSO-treated control. Here is the method:
Cells were lysed in 1×RIPA lysis buffer (Upstate Biotechnology) with 1% protease inhibitor mixture (Sigma)/1% phosphatase inhibitor mixture (Sigma)/1% phosphatase inhibitor mixture II (Sigma). Proteins were separated by 4-20% Tris-Glycine SDS/PAGE (Biorad) under denaturing conditions and transferred to a nitrocellulose membrane. After blocking with 5% nonfat milk in DPBS, the membrane was incubated with primary antibodies against phospho-ERK1/2 (Thr-202/Tyr-204) (1:2,000, Sigma) and ERK1/2 (1:1,000, Cell Signaling) overnight at 4° C. The membrane was then washed, incubated with anti-mouse/rabbit peroxidase-conjugated affinity-purified secondary antibody (1:1000, Cell Signaling) at room temperature for 1 hour, and developed by SuperSignal chemiluminescence (Pierce).
Experiments were performed to monitor downstream signaling by PKC. Since ERK signaling has been reported to be regulated by PKC (Ueda et al., 1996), the activity of ERK signaling was examined with Western blotting to detect the phosphorylation of ERK1/2 at Thr-202/Tyr-204. After 1 hour treatment with 300 nM ILV, the phosphorylation of ERK1/2 increased compared to the DMSO-treated control (FIG. 8a). In addition, MEK/ERK inhibitors, PD098059 or U0126, both block ILV's effect. […]

For experiment [2], the system named is HUES8-derived definitive endoderm population. Nature of the experiment: Pancreatic specification of the hESC-derived definitive endoderm population (Pdx1+ cells). To be noted: definitive endoderm population with 70% Sox17+ cells, 4 days; 300 nM ILV, 50 ng/ml FGF10. Here is the method:
FIG. 6c are results showing that ILV directs the specification of definitive endoderm population toward pancreatic lineage (definitive endoderm population was derived from HUES8 after 1 day treatment with 25 ng/ml Wnt3a and 100 ng/ml Activin A for 1 day and 100 ng/ml Activin A for additional 2 days; then, the definitive endoderm population was treated with 300 nM ILV or 300 nM ILV+50 ng/ml FGF10 for additional 4 days);
Secondly, ILV was examined on the definitive endoderm population containing 70% Sox17^+ cells derived from HUES8 by Wnt3a/Activin treatment (D'Amour et al., 2006). […] Thus, ILV functions by inducing pancreatic specification of hESC-derived definitive endoderm population.

Setting [3] is: 4 day treatment (300 nM ILV, 50 ng/ml FGF10), then 12 days bFGF and nicotinamide.

For (−)-Indolactam V [ILV], in the experiment with HUES8-derived population (setting [3]), the “DBA+ duct cells” value was 3.6±1.3%, the “amylase+ exocrine cells” value turned out to be 22.7±5.3% and the “insulin+ cells” value is 0.5±0.2%. Further, the “contribution to somatostatin+ cells” value in the experiment on HUES8-derived population (compared to no treatment or DMSO, immunostaining and qRT-PCR) is “stronger ability to contribute”. The “phosphorylation of ERK1/2” value in experiment [1] is “increased”. The “Pdx1+ cells” value in experiment [2] is 21.5±2.4%.

(Values after US9157062B2, “Compositions and methods for promoting the generation of PDX1+ pancreatic cells” (President and Fellows of Harvard College, priority 2008, dated 2015).)
